Laboratory results: PMC11113362 (MicrobiologyOpen, 2024)
Entries after “also recorded” stand apart in the source; their conditions may differ. Like-named read-outs stand apart in the source and are kept apart here. Where a SMILES comes first, the peptide text is derived from it.

Tests used:
[1] = biological target: T1, PA0602 solute binding protein (Pseudomonas aeruginosa, UniProt Q9I5T6); settings: thermal shift assay, Biolog compound arrays, more than 2°C considered significant
Description: (§1) Briefly, assays were carried out using a MyIQ2 Real‐Time PCR instrument (BioRad). Experiments were conducted in 96‐well plates, and each assay mixture contained 20.5 μL of the dialyzed protein at 10–50 μM, 2 μL of 5X SYPRO orange (Life Technologies) and 2.5 μL of ligand solution or the equivalent amount of buffer in the ligand‐free control. Compound arrays PM1, PM2a, PM3B, PM4A, PM5, PM6, PM7, and PM8 from Biolog (Newark) were used. Compounds were dissolved in 50 μL water that, according to the information provided by the manufacturer, corresponds to a concentration of 10–20 mM. […] The protein unfolding curves were monitored by detecting changes in SYPRO Orange fluorescence. The Tm values correspond to the minima of the first derivatives of the raw fluorescence data.
The PA0602 protein was overexpressed in E. coli and purified. Freshly dialyzed protein was submitted to thermal shift assays‐based ligand screening using the Biolog compound arrays PM1, PM2A (both carbon sources), PM3B (nitrogen sources), PM4 (phosphorous and sulfur sources), PM5 (nutrient supplements), PM6, PM7, and PM8 (all peptide nitrogen sources). Ligand binding to the protein typically delays thermal unfolding causing increases in the midpoint of the protein unfolding transition (Tm). Tm increases of more than 2°C are considered significant.

[2] = biological target: T2, PA4985 solute binding protein (Pseudomonas aeruginosa, UniProt Q9HUI0); settings: thermal shift assay, Biolog compound arrays, more than 2°C considered significant
Description: as §1

[3] = biological target: T3, AgtB (PA0604) solute binding protein (Pseudomonas aeruginosa, UniProt Q9I5T4); assay: biochemical
Description: (§2) Experiments were conducted on a VP‐microcalorimeter (Microcal). Proteins were dialyzed into the TMP buffer, placed at a concentration of 20–40 µM into the sample cell and titrated with 0.25–2.5 mM ligand solutions that were prepared using the dialysis buffer immediately before use. […] The mean enthalpies measured from the injection of ligands into the buffer were subtracted from raw titration data before data analysis with the MicroCal version of ORIGIN. Data were fitted with the “One binding site model” of ORIGIN.

[4] = system: P. aeruginosa PAO1; assay: Growth experiments with ligand as sole carbon source; settings: M9 minimal medium, 10 mM compound, 37°C
[5] = biological target: T1, PA0602 solute binding protein; assay: biochemical; parameters: species or system Pseudomonas aeruginosa PAO1; settings: for K D: PA0602, microcalorimetric titration, TMP buffer pH 8
Source text: At times thermal shift assays provide […] results, i.e. although there is binding, the Tm shift induced is only minor.

[6] = biological target: T2, PA4985 solute binding protein; assay: biochemical; parameters: species or system Pseudomonas aeruginosa PAO1
Source text: PA4985 is an uncharacterized protein. […] .

[7] = biological target: T3, AgtB (PA0604) solute binding protein; settings: microcalorimetric titration, TMP buffer pH 8
Description: as §2

[8] = biological target: T4, PA4985 (Pseudomonas aeruginosa, UniProt Q9HUI0); assay: Isothermal titration calorimetry (VP-microcalorimeter) of 20-40 µM purified SBP titrated with 0.25-2.5 mM ligand in TMP buffer (5 mM Tris-HCl, 5 mM MES, 5 mM PIPES, 10% glycerol, pH 8), fitted with the one binding site model; temperature not stated.
T4 construct: residues 40-363, signal peptide omitted, N-terminal His-tag with thrombin site, expressed in E. coli BL21 (DE3)

[9] = biological target: T5, PA0602 (Pseudomonas aeruginosa, UniProt Q9I5T6); assay: as above
T5 construct: residues 22-344, signal peptide omitted, N-terminal His-tag with thrombin site, expressed in E. coli BL21 (DE3)

[10] = system: P. aeruginosa; parameters: method as in Dagorn et al., 2013; settings: 10 μM GABA; ref Dagorn et al., 2013; cited from earlier work
[11] = biological target: T3, AgtB (PA0604) solute binding protein; settings: thermal shift assay, Biolog compound arrays, more than 2°C considered significant
Description: as §1
To identify the ligands that interact with AgtB, we pursued the same strategy and screened for ligand binding using the PM1 to PM8 compound arrays.

[12] = system: AgtS‐LBD (PA0600, amino acids 22–274); assay: Isothermal titration calorimetry of AgtS‐LBD (small ligand and protein‐protein binding studies); settings: for K D (binding of SBP to AgtS‐LBD): 5–10 μM SBP titrated with 50–97 μM AgtS‐LBD, no small ligand; for Protein–protein interaction with AgtS‐LBD, His‐tag‐free protein: His‐tag removed by thrombin, in the presence of GABA (PA0602) or 5‐AMV (AgtB); for K D (binding of ligand‐loaded SBP to AgtS‐LBD): both compartments contained 5 mM 5‐AMV (AgtB) or 1 mM GABA (PA0602)
Description: as §2
Fractions that correspond to cleaved protein were dialyzed overnight into the TMP buffer for ITC experiments.
To address this issue, the individual AgtS‐LBD was produced as a purified, recombinant protein.
To assess the possibility of SBP‐mediated activation of AgtS, we conducted protein‐protein microcalorimetric binding studies (Table 1).
Proteins used for these experiments contained an N‐terminal extension harboring the His‐tag. To exclude the possibility that the presence of this extension impedes protein interaction, the tag was cleaved with thrombin in freshly purified PA0602, AgtB, and AgtS‐LBD and its removal was verified by SDS‐PAGE (Figure A4).

[13] = biological target: T6, AruS‐LBD (PA4982, residues 31–141) (Pseudomonas aeruginosa, UniProt Q9HUI3); assay: Bacterial two‐hybrid assay (BACTH); settings: BACTH in E. coli BTH101 on X‐Gal plates; no ligand or GABA, 5‐AMV, spermidine or ethylenediamine at 5 mM
T6 sequence (Q9HUI3 whole entry, looked up): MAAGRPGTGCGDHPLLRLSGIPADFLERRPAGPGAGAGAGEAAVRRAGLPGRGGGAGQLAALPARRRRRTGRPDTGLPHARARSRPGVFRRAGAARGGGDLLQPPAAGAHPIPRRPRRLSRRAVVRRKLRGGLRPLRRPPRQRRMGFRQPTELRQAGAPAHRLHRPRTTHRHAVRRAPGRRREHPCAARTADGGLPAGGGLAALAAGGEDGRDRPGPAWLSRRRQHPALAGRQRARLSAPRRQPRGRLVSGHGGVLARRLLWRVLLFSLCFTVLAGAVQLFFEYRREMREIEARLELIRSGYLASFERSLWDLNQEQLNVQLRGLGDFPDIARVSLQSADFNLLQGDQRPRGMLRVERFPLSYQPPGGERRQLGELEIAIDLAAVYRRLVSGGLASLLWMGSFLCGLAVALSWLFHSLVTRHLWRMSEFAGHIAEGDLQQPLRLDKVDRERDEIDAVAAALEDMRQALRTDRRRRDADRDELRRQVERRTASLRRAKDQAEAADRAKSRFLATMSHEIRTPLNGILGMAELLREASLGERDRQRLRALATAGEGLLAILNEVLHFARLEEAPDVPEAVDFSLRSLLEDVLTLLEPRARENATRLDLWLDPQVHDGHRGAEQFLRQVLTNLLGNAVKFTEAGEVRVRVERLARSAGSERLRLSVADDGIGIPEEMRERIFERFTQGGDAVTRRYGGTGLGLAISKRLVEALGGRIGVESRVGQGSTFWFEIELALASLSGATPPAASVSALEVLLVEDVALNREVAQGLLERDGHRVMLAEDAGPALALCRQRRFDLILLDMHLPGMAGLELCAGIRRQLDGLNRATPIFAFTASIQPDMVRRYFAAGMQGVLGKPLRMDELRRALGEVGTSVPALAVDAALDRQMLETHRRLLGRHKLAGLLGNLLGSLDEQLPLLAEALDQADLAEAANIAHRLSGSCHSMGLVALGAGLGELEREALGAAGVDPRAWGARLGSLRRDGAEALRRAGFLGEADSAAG
Description: Plates were incubated at 30°C for 24–48 h. As a positive control, the plasmids pKT25‐zip and pUT18C‐zip were co‐transformed into E. coli BTH101. Negative controls were E. coli BTH101 harboring pUT18C and pKNT25::AruS (strain K^+T^−), and a strain harboring pUT18C::PA4985 and pKNT25 (strain K^−T^+).
This system is based on an adenylate cyclase that contains two catalytically active domains. […] The resulting increase in cAMP induces the expression of lactose and maltose operons, causing a blue colouration of bacteria on X‐Gal‐containing plates. We generated a plasmid that expresses PA4985 fused to one enzyme subunit (pUT18C::PA4985) and a plasmid encoding a fusion of AruS‐LBD to the other subunit (pKNT25::AruS). E. coli BTH101 was transformed with both plasmids, resulting in strain K^+T^+. The K^+T^− and K^−T^+ are negative control strains that contained one of the plasmid constructs (plus sign) and the empty version of the second plasmid (minus sign). The positive control (C+) was provided by the manufacturer.

NCCCCC(=O)O [5‐AMV, 5‐aminovalerate]
Tm shift [1]: 2.3 °C
Tm shift [2]: 7.6 °C
Kd [3]: 17 ± 0.8 µM
Growth as sole carbon source [4]: significant growth
Kd [5]: 30 ± 2 µM
Kd [6]: 1.6 ± 0.1 µM

C[C@H](N)C(=O)NCC(=O)O [Ala‐Gly] (H-Ala-Gly-OH)
K D [7]: did not reveal binding

NCCN [Ethylenediamine, ethylenediamine]
Tm shift [1]: 2.0 °C
Tm shift [2]: 3.5 °C
Kd [8]: 19 ± 1 µM
Kd [9]: 103 ± 4 µM

NCCCC(=O)O [GABA, γ‐aminobutyrate]
K D [7]: did not reveal binding; also recorded: No binding
Growth as sole carbon source [4]: significant growth
Kd [5]: 2.3 ± 0.8 µM
Cytotoxicity and virulence [10]: strongly increased
Growth or motility [10]: did not modulate
Kd [6]: 0.58 ± 0.1 µM

NCC(=O)N[C@@H](CCC(N)=O)C(=O)O [Gly‐Gln] (H-Gly-Gln-OH)
K D [7]: did not reveal binding

N=C(N)NCCC[C@H](N)C(=O)O [L‐Arg]
Tm shift [2]: No binding
K D ([6]; PA4985, microcalorimetric titration, TMP buffer pH 8): No binding

CC(=O)N[C@@H]1[C@@H](O)[C@H](O)[C@@H](CO)O[C@@H]1O [N‐acetyl‐D‐glucosamine]
K D [7]: absence of binding; also recorded: No binding
Tm shift [1]: absence of binding
Tm shift ([1]; listed as NADG): No binding
Tm shift [11]: absence of binding; also recorded: No binding
Binding of small ligand to AgtS‐LBD ([12]; microcalorimetric titration of AgtS‐LBD): did not show binding
K D [5]: absence of binding
K D ([5]; listed as NADG): No binding

NCCCCNCCCN [Spermidine, spermidine]
Tm shift [1]: No binding
Tm shift [2]: 2.8 °C
Growth as sole carbon source [4]: significant growth
K D [5]: No binding
Kd [6]: 160 ± 23 µM

NCCCCN [putrescine]
Tm shift [1]: No binding
K D [5]: No binding

NCCC(=O)O [β‐alanine]
K D [7]: No binding
Tm shift [11]: No binding

B1: AgtB: recombinant His‐tagged solute binding protein (SBP_bac_8) of P. aeruginosa PAO1, part of the agt transporter operon (protein)
chain: MGSSHHHHHHSSGLVPRGSHMAVDLTVVSFGGANKSAQIKAFYEPYQKATGNRIVAGEYNGEMAKVKAMVDTNSVSWDLVEVESPELSRGCDEGLFEELDPAQFGKTEDFVPGAIQPCGVGFFVWSTVLAYNADKLKSAPTSWADFWDIKKFPGKRGLRKGAKYTLEFALMADGVAPKDVYGVLATKEGQDRAFKKLDEIKSSIQWWEAGAQPPQYLASGDVVMSSAYNGRIAAVQKESNLKVVWNGGIYDFDAWAIPKGAKKREETLKFIAFSVQPQQQKTYSENIAYGPANKQAVPLLDKALLKDMPTTPENIQNQVAMDVTFWADYGEQLEQRFNAWAAR
K D (binding of SBP to AgtS‐LBD) [12]: did not show any binding; also recorded: did not reveal binding; also recorded: No binding
Protein–protein interaction with AgtS‐LBD, His‐tag‐free protein [12]: did not result in any protein–protein interaction
K D (binding of ligand‐loaded SBP to AgtS‐LBD) [12]: absence of binding

B2: PA0602: recombinant His‐tagged solute binding protein (SBP_bac_8) of P. aeruginosa PAO1 (protein)
chain: MGSSHHHHHHSSGLVPRGSHMAEYVTVISFGGANKEAQETAFYKPFKSATGNRVVHGSYNGDLAKLKRMVEISHVSWDVVEVEAPELARGCEEGLFEKLDMAKVGDPADFVPGAVQPCGVGIFVWTTLLAYNPGKVAGSPQGWADFWDVKKFPGKRGLRWGAKYSLEFALMADGVAPKDVYQTLATPAGVERAFRKLDELKPYIHWWKSGQDPVRDLADGTVVMSSAYNGRIAAAQAEKQRLAMVWSGGVYDFDFWALPVGVWKKQLAEEFIRFASQPEQQKAFAENIAYGPANRKAVGLLDPQVAANLPTAPQNMQNAVGMNVAFWAEHGEALEQRFQNWAKR
K D (binding of SBP to AgtS‐LBD) [12]: did not show any binding; also recorded: did not reveal binding; also recorded: No binding
Protein–protein interaction with AgtS‐LBD, His‐tag‐free protein [12]: did not result in any protein–protein interaction
K D (binding of ligand‐loaded SBP to AgtS‐LBD) [12]: absence of binding

B3: PA4985: solute binding protein (SBP_bac_8) of P. aeruginosa PAO1 encoded near the aruSR TCS (protein)
chain: MGSSHHHHHHSSGLVPRGSHMADDGLVVVGYGGAGQKAQEVAFFQPFTQQTGIPVVQSEYNGEMARIKVMADTGHADWDLVQVEGPDLARGCDDGLFERLDWQAIGGKQQLIANAAQECGSAALVWGVAIGYDADRLQQPPASWADFWDVQRFPGKRGLRKRAIYNLEFALLADGVPREQVYPLLATRAGADRAFAKLGQLKPYIQWWEAGAQPAQWLAAGDVVMTSTYTGRIADAHRAGRNLALVWQGSLYGMDYWAVVKGSKRGAEARRFIAFANAPDAQVRYVENIPYGPTNRQAAQRLPAQLASWVPTAPANLEQGLAMDDEFWVEHGEELEERFNAWASQ
PA4985/AruS‐LBD interaction [13]: did not demonstrate an interaction; also recorded: absence of an PA4985/AruS–LBD interaction
